Data published in US6114310A, “Efflux pump inhibitors” (priority 1998, dated 2000).

System: Pseudomonas aeruginosa PAM1001
Assay: microbe, parasite or virus in culture
Assay type: cell-based
Method: The activity of efflux pump inhibitors (EPI) in combination with fluoroquinolones, such as levofloxacin, is assessed by the checkerboard assay (Antimicrobial Combinations. In Antibiotics in Laboratory Medicine, Ed. Victor Lorian, M. D., Fourth edition, 1996, pp 333-338) using broth microdilution method performed as recommended by the NCCLS (National Committee for Clinical Laboratory Standards (NCCLS). 1997. Methods for Dilution of Antimicrobial Susceptibility Tests for Bacteria That Grow Aerobically--Fourth Edition; Approved Standard. NCCLS Document M7-A4, Vol 17 No.2). The test organism used is Pseudomonas aeruginosa PAM1001.
In this assay, multiple dilutions of two drugs, namely the EPI and levofloxacin, are being tested, alone and in combination, at concentrations equal to, above and below their respective minimal inhibitory concentrations (MICs).
Stock solutions are further diluted, according to the needs of a particular assay, in Mueller Hinton Broth (MHB). Stock solution can be stored at -80° C. Quinolones are solubilized according to the instructions of the manufacturers, at a concentration of 1 mg/ml. They are then further diluted in MHB. Stock solution can be stored at -80° C.
The checkerboard assay is performed in microtiter plates. Levofloxacin is diluted in the x axis, each column containing a single concentration of levofloxacin. The EPI is diluted in the y axis, each row containing an equal concentration of EPI. The result of these manipulations is that each well of the microtiter plate contains a unique combination of concentrations of the two agents. Each EPI are tested independently.
The assay is performed in MHB with a final bacterial inoculum of 5×10^5 CFU/ml (from an early-log phase culture). Microtiter plates are incubated during 20 h at 35° C. and are read using a microtiterplate reader (Molecular Devices) at 650 nm as well as visual observation using a microtiterplate reading mirror.

For “D-Lysyl-β-N-(3,3-Dimethylbutyl)alanine 2-Naphthylamide Trifluoroacetate [Example 30]”, the “Levofloxacin MIC Against P. aeruginosa PAM1001 in Presence of Efflux Pump Inhibitor (EPI), Minimum Inhibitory Concentration” value (Table 1, EPI Conc. 0 μg/ml) was 4 mg/L, the “Levofloxacin MIC Against P. aeruginosa PAM1001 in Presence of Efflux Pump Inhibitor (EPI), Minimum Inhibitory Concentration” value (Table 1, EPI Conc. 0.625 μg/ml) was 4 mg/L and the “Levofloxacin MIC Against P. aeruginosa PAM1001 in Presence of Efflux Pump Inhibitor (EPI), Minimum Inhibitory Concentration” value (Table 1, EPI Conc. 5 μg/ml) was 4 mg/L. For the same substance, the “Levofloxacin MIC Against P. aeruginosa PAM1001 in Presence of Efflux Pump Inhibitor (EPI), Minimum Inhibitory Concentration” value (Table 1, EPI Conc. 10 μg/ml) was 2 mg/L, the “Levofloxacin MIC Against P. aeruginosa PAM1001 in Presence of Efflux Pump Inhibitor (EPI), Minimum Inhibitory Concentration” value (Table 1, EPI Conc. 40 μg/ml) was 0.03 mg/L and the “Levofloxacin MIC Against P. aeruginosa PAM1001 in Presence of Efflux Pump Inhibitor (EPI), Minimum Inhibitory Concentration” value (Table 1, EPI Conc. […]) was 4 mg/L. The “Levofloxacin MIC Against P. aeruginosa PAM1001 in Presence of Efflux Pump Inhibitor (EPI), Minimum Inhibitory Concentration” value (Table 1, EPI Conc. μg/ml (number not given; column between 10 and 40 μg/ml)) was 0.50 mg/L, the “Levofloxacin MIC Against P. aeruginosa PAM1001 in Presence of Efflux Pump Inhibitor (EPI), Minimum Inhibitory Concentration” value (Table 2, EPI Conc. 0 μg/ml) was 4 mg/L and the “Levofloxacin MIC Against P. aeruginosa PAM1001 in Presence of Efflux Pump Inhibitor (EPI), Minimum Inhibitory Concentration” value (Table 2, EPI Conc. 0.625 μg/ml) was 4 mg/L. The “Levofloxacin MIC Against P. aeruginosa PAM1001 in Presence of Efflux Pump Inhibitor (EPI), Minimum Inhibitory Concentration” value (Table 2, EPI Conc. 5 μg/ml) was 0.25 mg/L, the “Levofloxacin MIC Against P. aeruginosa PAM1001 in Presence of Efflux Pump Inhibitor (EPI), Minimum Inhibitory Concentration” value (Table 2, EPI Conc. 10 μg/ml) was 0.03 mg/L and the “Levofloxacin MIC Against P. aeruginosa PAM1001 in Presence of Efflux Pump Inhibitor (EPI), Minimum Inhibitory Concentration” value (Table 2, EPI Conc. 40 μg/ml) was 0.03 mg/L. The “Levofloxacin MIC Against P. aeruginosa PAM1001 in Presence of Efflux Pump Inhibitor (EPI), Minimum Inhibitory Concentration” value (Table 2, EPI Conc. μg/ml (number not given; column between 10 and 40 μg/ml)) was 0.03 mg/L, the “Levofloxacin MIC Against P. aeruginosa PAM1001 in Presence of Efflux Pump Inhibitor (EPI), Minimum Inhibitory Concentration” value (Table 3, EPI Conc. 0 μg/ml) was 4 mg/L and the “Levofloxacin MIC Against P. aeruginosa PAM1001 in Presence of Efflux Pump Inhibitor (EPI), Minimum Inhibitory Concentration” value (Table 3, EPI Conc. 0.625 μg/ml) was 4 mg/L. For the same substance, the “Levofloxacin MIC Against P. aeruginosa PAM1001 in Presence of Efflux Pump Inhibitor (EPI), Minimum Inhibitory Concentration” value (Table 3, EPI Conc. 5 μg/ml) was 0.25 mg/L, the “Levofloxacin MIC Against P. aeruginosa PAM1001 in Presence of Efflux Pump Inhibitor (EPI), Minimum Inhibitory Concentration” value (Table 3, EPI Conc. 10 μg/ml) was 0.015 mg/L and the “Levofloxacin MIC Against P. aeruginosa PAM1001 in Presence of Efflux Pump Inhibitor (EPI), Minimum Inhibitory Concentration” value (Table 3, EPI Conc. 40 μg/ml) was 0.015 mg/L. For the same substance, the “Levofloxacin MIC Against P. aeruginosa PAM1001 in Presence of Efflux Pump Inhibitor (EPI), Minimum Inhibitory Concentration” value (Table 3, EPI Conc. μg/ml (number not given; column between 10 and 40 μg/ml)) was 0.015 mg/L, the “Levofloxacin MIC Against P. aeruginosa PAM1001 in Presence of Efflux Pump Inhibitor (EPI), Minimum Inhibitory Concentration” value (Table 4, EPI Conc. 0 μg/ml) was 4 mg/L and the “Levofloxacin MIC Against P. aeruginosa PAM1001 in Presence of Efflux Pump Inhibitor (EPI), Minimum Inhibitory Concentration” value (Table 4, EPI Conc. 0.625 μg/ml) was 4 mg/L. For the same substance, the “Levofloxacin MIC Against P. aeruginosa PAM1001 in Presence of Efflux Pump Inhibitor (EPI), Minimum Inhibitory Concentration” value (Table 4, EPI Conc. 5 μg/ml) was 0.03 mg/L, the “Levofloxacin MIC Against P. aeruginosa PAM1001 in Presence of Efflux Pump Inhibitor (EPI), Minimum Inhibitory Concentration” value (Table 4, EPI Conc. 10 μg/ml) was 0.03 mg/L and the “Levofloxacin MIC Against P. aeruginosa PAM1001 in Presence of Efflux Pump Inhibitor (EPI), Minimum Inhibitory Concentration” value (Table 4, EPI Conc. 40 μg/ml) was 0.015 mg/L. The “Levofloxacin MIC Against P. aeruginosa PAM1001 in Presence of Efflux Pump Inhibitor (EPI), Minimum Inhibitory Concentration” value (Table 4, EPI Conc. μg/ml (number not given; column between 10 and 40 μg/ml)) was 0.03 mg/L.
